Test results as given in patent US8618138B2, “Indole amide derivatives and related compounds for use in the treatment of neurodegenerative diseases” (Katholieke Universiteit Leuven, K.U. Leuven R&D, priority 2009, dated 2013).

Each molecule was assayed on M17-TAU P301L cells (assay: TAU cytotoxicity assay: LDH leakage of retinoic acid incubated M17-TAU P301L cells). Settings: Homo sapiens, 168 h, reduction of LDH activity of retinoic acid incubated M17-TAU P301L cells, 7 days.
Format: cell-based, human
Description: A TAU expression plasmid was constructed by sub-cloning the cDNA of human TAU-P301 L (encoding for TAU with proline 301 substituted by a leucine residue) into mammalian expression vector pcDNA3.1 resulting in plasmid pcDNA3.1-TAU P301L. Plasmids pcDNA3.1 and pcDNA3.1-TAU P301L were transfected to human neuroblastoma cells ([…]; ATCC No. CRL-2267) and independent clonal lines with the plasmids stably integrated into the genome were selected. […] Expression of the TAU P301L genes in the cell lines was confirmed by Western analysis.
In degenerated or dead cells lactate dehydrogenase (LDH) is leaked out of the cells into the extracellular environment due to a loss of plasma-membrane integrity. This principle was used to determine cytotoxicity by quantifying the level of leaked LDH into the growth medium.
The detailed method for determining TAU cytotoxicity was as follows: From appropriate precultures of M17-3.1 and M17-TAU(P301L) cells were seeded at 2500 cells/cm2 in Optimem Reduced Serum without phenol red (Gibco, Cat. 31985-047) supplemented with 1% fetal calf serum, 1 mM sodium pyruvate, 1× non-essential amino acids, 500 μg/ml G418 0.5× antibiotic/antimycotic. After 3 h of incubation at 37° C./5% CO2 1 volume of Optimem Reduced Serum (same as described above; except without fetal calf serum) supplemented with 2.5 μM retinoic acid (RA) was added. The cells were further incubated for 7 days. Subsequently, LDH activity was determined using Promega Cytotox 96 Non-Radioactive cytotoxicity assay, (Cat. G1780) according the supplier's instructions.
The M17-TAU P301L cell line made it possible to assess the ability of novel compounds to counteract TAU cytotoxicity. […] These measurements were used to calculate EC50 values of table 2.
Exemplary compounds of the present invention are shown in table 2, with their chemical name and their EC50 value (expressed in nM) as determined from example 196 in the Tau-induced toxicity experiment.

Question: With O=C(NCCc1c[nH]c2ccc(Cl)cc12)c1cc(-c2cccc3c2OCCO3)on1 [Example D38, N-(2-(5-chloro-1H-indol-3-yl)ethyl)-5-(2,3-dihydrobenzo[b][1,4]dioxin-5-yl)isoxazole-3-carboxamide] as the molecule, how does the EC50 read?
Answer: Its EC50 is 80 nM.

Question: For Cc1nc(NCCc2ccccc2)sc1C(=O)NCCc1c[nH]c2ccccc12 [Example D39, N-(2-(1H-indol-3-yl)ethyl)-4-methyl-2-(phenethylamino)thiazole-5-carboxamide], which EC50 is on record?
Answer: The EC50 was 87 nM.

Question: For CCc1ccc(N2CCC(C(=O)NCCc3c[nH]c4ccc(Cl)cc34)C2=O)cc1 (stereo not shown) [Example D40, N-(2-(5-chloro-1H-indol-3-yl)ethyl)-1-(4-ethylphenyl)-2-oxopyrrolidine-3-carboxamide], which EC50 is on record?
Answer: Its EC50 is 91 nM.

Question: O=C(NCCc1c[nH]c2ccc(Cl)cc12)c1cc(Cc2ccncc2)on1 [Example D41, N-(2-(5-chloro-1H-indol-3-yl)ethyl)-5-(pyridin-4-ylmethyl)isoxazole-3-carboxamide] was tested. Which EC50 did it give?
Answer: The EC50 was 91 nM.

Question: With O=C(NCCc1c[nH]c2ccc(Cl)cc12)c1cc(Cn2cccn2)on1 [Example D42, 5-((1H-pyrazol-1-yl)methyl)-N-(2-(5-chloro-1H-indol-3-yl)ethyl)isoxazole-3-carboxamide] as the molecule, how does the EC50 read?
Answer: The EC50 was 92 nM.

Question: Which EC50 does the source give for O=C(NCCc1c[nH]c2ccc(Cl)cc12)C1=NOC(Cc2ccccc2)C1 (stereo not shown) [Example D43, 5-benzyl-N-(2-(5-chloro-1H-indol-3-yl)ethyl)-4,5-dihydroisoxazole-3-carboxamide] here?
Answer: The EC50 was 94 nM.

Question: Which EC50 does the source give for O=C(NCCc1c[nH]c2ccc(Cl)cc12)c1cn(C2CCCCC2)nn1 [Example D44, N-(2-(5-chloro-1H-indol-3-yl)ethyl)-1-cyclohexyl-1H-1,2,3-triazole-4-carboxamide] here?
Answer: The EC50 was 108 nM.

Question: For Cc1ccc(-c2nc(C)c(C(=O)NCCc3c[nH]c4ccc(Cl)cc34)s2)cc1 [Example D45, N-(2-(5-chloro-1H-indol-3-yl)ethyl)-4-methyl-2-p-tolylthiazole-5-carboxamide], which EC50 is on record?
Answer: Its EC50 is 113 nM.

Question: How did the EC50 turn out when Cc1nc(-c2ccccc2)sc1C(=O)NCCc1c[nH]c2ccc(Cl)cc12 [Example D46, N-(2-(5-chloro-1H-indol-3-yl)ethyl)-4-methyl-2-phenylthiazole-5-carboxamide] was run?
Answer: Its EC50 is 123 nM.

Question: Which EC50 does the source give for O=C(NCCc1c[nH]c2cc(F)ccc12)c1cc(Cc2cccc(F)c2)on1 [Example D47, N-(2-(6-fluoro-1H-indol-3-yl)ethyl)-5-(3-fluorobenzyl)isoxazole-3-carboxamide] here?
Answer: Its EC50 is 132 nM.

Question: With CCc1ccc(N2CCC(C(=O)NCCc3c[nH]c4ccc(C)cc34)C2=O)cc1 (stereo not shown) [Example D48, 1-(4-ethylphenyl)-N-(2-(5-methyl-1H-indol-3-yl)ethyl)-2-oxopyrrolidine-3-carboxamide] as the molecule, how does the EC50 read?
Answer: Its EC50 is 138 nM.

Question: For COc1ccc(-c2cc(C(=O)NCCc3c[nH]c4ccc(Cl)cc34)no2)cc1 [Example D49, N-(2-(5-chloro-1H-indol-3-yl)ethyl)-5-(4-methoxyphenyl)isoxazole-3-carboxamide], which EC50 is on record?
Answer: Its EC50 is 140 nM.

Question: How did the EC50 turn out when O=C(NCCc1c[nH]c2ccc(Cl)cc12)C1CC(c2ccccc2)=NO1 (stereo not shown) [Example D50, N-(2-(5-chloro-1H-indol-3-yl)ethyl)-3-phenyl-4,5-dihydroisoxazole-5-carboxamide] was run?
Answer: The EC50 was 151 nM.

Question: With Cn1cc(CCNC(=O)c2cc(Cc3cccc(F)c3)on2)c2cc(Cl)ccc21 [Example D51, N-(2-(5-chloro-1-methyl-1H-indol-3-yl)ethyl)-5-(3-fluorobenzyl)isoxazole-3-carboxamide] as the molecule, how does the EC50 read?
Answer: Its EC50 is 157 nM.

Question: How did the EC50 turn out when O=C(NCCc1c[nH]c2ccc(Cl)cc12)c1nnc(-c2ccccc2)o1 [Example D52, N-(2-(5-chloro-1H-indol-3-yl)ethyl)-5-phenyl-1,3,4-oxadiazole-2-carboxamide] was run?
Answer: Its EC50 is 158 nM.

Question: Which EC50 does the source give for O=C(NCCc1c[nH]c2ccc(Cl)cc12)c1ncc(-c2ccccc2)o1 [Example D53, N-(2-(5-chloro-1H-indol-3-yl)ethyl)-5-phenyloxazole-2-carboxamide] here?
Answer: Its EC50 is 171 nM.

Question: O=C(NCCc1c[nH]c2ccc(Cl)cc12)c1cn(Cc2ccccc2)nn1 [Example D54, 1-benzyl-N-(2-(5-chloro-1H-indol-3-yl)ethyl)-1H-1,2,3-triazole-4-carboxamide] was tested. Which EC50 did it give?
Answer: Its EC50 is 173 nM.

Question: For O=C(NCCc1c[nH]c2ccc(Cl)cc12)C1=NOC(c2ccccc2)C1 (stereo not shown) [Example D55, N-(2-(5-chloro-1H-indol-3-yl)ethyl)-5-phenyl-4,5-dihydroisoxazole-3-carboxamide], which EC50 is on record?
Answer: The EC50 was 189 nM.

Question: For O=C(NCCc1c[nH]c2ccc(Cl)cc12)c1cc(-c2ccc(Cl)cc2)on1 [Example D56, N-(2-(5-chloro-1H-indol-3-yl)ethyl)-5-(4-chlorophenyl)isoxazole-3-carboxamide], which EC50 is on record?
Answer: Its EC50 is 190 nM.

Question: Which EC50 does the source give for Cc1ccc(-c2cc(C(=O)NCCc3c[nH]c4ccc(Cl)cc34)no2)cc1 [Example D57, N-(2-(5-chloro-1H-indol-3-yl)ethyl)-5-p-tolylisoxazole-3-carboxamide] here?
Answer: Its EC50 is 195 nM.

Question: How did the EC50 turn out when O=C(NCCc1c[nH]c2ccc(Cl)cc12)C1=N[C@H](C2CCCCC2)CO1 [Example D58, (R)-N-(2-(5-chloro-1H-indol-3-yl)ethyl)-4-cyclohexyl-4,5-dihydrooxazole-2-carboxamide] was run?
Answer: Its EC50 is 202 nM.

Question: With O=C(NCCc1c[nH]c2ccc(Cl)cc12)C1=N[C@@H](C2CCCCC2)CO1 [Example D59, (S)-N-(2-(5-chloro-1H-indol-3-yl)ethyl)-4-cyclohexyl-4,5-dihydrooxazole-2-carboxamide] as the molecule, how does the EC50 read?
Answer: The EC50 was 211 nM.

Question: O=C(NCCc1c[nH]c2ccc(Cl)cc12)c1nnc(Cc2ccccc2)o1 [Example D60, 5-benzyl-N-(2-(5-chloro-1H-indol-3-yl)ethyl)-1,3,4-oxadiazole-2-carboxamide] was tested. Which EC50 did it give?
Answer: Its EC50 is 213 nM.

Question: With O=C(NCCc1c[nH]c2ccc(Cl)cc12)c1cc(CN2CCCC2)on1 [Example D61, N-(2-(5-chloro-1H-indol-3-yl)ethyl)-5-(pyrrolidin-1-ylmethyl)isoxazole-3-carboxamide] as the molecule, how does the EC50 read?
Answer: The EC50 was 227 nM.

Question: With Cc1oc(-c2ccccc2)nc1C(=O)NCCc1c[nH]c2ccc(Cl)cc12 [Example D62, N-(2-(5-chloro-1H-indol-3-yl)ethyl)-5-methyl-2-phenyloxazole-4-carboxamide] as the molecule, how does the EC50 read?
Answer: Its EC50 is 237 nM.

Question: For O=C(NCCc1c[nH]c2ccc(Cl)cc12)N1CCC(c2ccccc2)C1 (stereo not shown) [Example D63, N-(2-(5-chloro-1H-indol-3-yl)ethyl)-3-phenylpyrrolidine-1-carboxamide], which EC50 is on record?
Answer: The EC50 was 304 nM.

Question: Which EC50 does the source give for O=C(NCCc1c[nH]c2ccc(Cl)cc12)C1CCN(c2ccccc2)C1=O (stereo not shown) [Example D64, N-(2-(5-chloro-1H-indol-3-yl)ethyl)-2-oxo-1-phenylpyrrolidine-3-carboxamide] here?
Answer: Its EC50 is 313 nM.

Question: O=C(NCCc1c[nH]c2ccc(Cl)cc12)C1CCN(c2cccc(F)c2)C1=O (stereo not shown) [Example D65, N-(2-(5-chloro-1H-indol-3-yl)ethyl)-1-(3-fluorophenyl)-2-oxopyrrolidine-3-carboxamide] was tested. Which EC50 did it give?
Answer: Its EC50 is 321 nM.

Question: How did the EC50 turn out when CCNCc1cc(C(=O)NCCc2c[nH]c3ccc(Cl)cc23)no1 [Example D66, N-(2-(5-chloro-1H-indol-3-yl)ethyl)-5-((ethylamino)methyl)isoxazole-3-carboxamide] was run?
Answer: Its EC50 is 327 nM.

Question: How did the EC50 turn out when O=C(NCCc1c[nH]c2ccc(Cl)cc12)c1csc(-c2ccccc2)n1 [Example D67, N-(2-(5-chloro-1H-indol-3-yl)ethyl)-2-phenylthiazole-4-carboxamide] was run?
Answer: Its EC50 is 333 nM.

Question: With O=C(NCCc1c[nH]c2ccc(Cl)cc12)c1cc(-c2ccc(Cl)cc2)oc1C(F)(F)F [Example D68, N-(2-(5-chloro-1H-indol-3-yl)ethyl)-5-(4-chlorophenyl)-2-(trifluoromethyl)furan-3-carboxamide] as the molecule, how does the EC50 read?
Answer: Its EC50 is 337 nM.

Question: How did the EC50 turn out when O=C(NCCc1c[nH]c2ccc(Cl)cc12)N1CCN(Cc2ccccc2)C1 [Example D69, 3-benzyl-N-(2-(5-chloro-1H-indol-3-yl)ethyl)imidazolidine-1-carboxamide] was run?
Answer: Its EC50 is 357 nM.

Question: With COc1ccc(N2CCC(C(=O)NCCc3c[nH]c4ccc(Cl)cc34)C2=O)cc1 (stereo not shown) [Example D70, N-(2-(5-chloro-1H-indol-3-yl)ethyl)-1-(4-methoxyphenyl)-2-oxopyrrolidine-3-carboxamide] as the molecule, how does the EC50 read?
Answer: Its EC50 is 408 nM.

Question: How did the EC50 turn out when CC(C)c1ccc(N2CCC(C(=O)NCCc3c[nH]c4ccc(Cl)cc34)C2=O)cc1 (stereo not shown) [Example D71, N-(2-(5-chloro-1H-indol-3-yl)ethyl)-1-(4-isopropylphenyl)-2-oxopyrrolidine-3-carboxamide] was run?
Answer: The EC50 was 413 nM.

Question: Which EC50 does the source give for Cc1cc(C(=O)NCCc2c[nH]c3ccccc23)c(C)n1C1CC1 [Example D72, N-(2-(1H-indol-3-yl)ethyl)-1-cyclopropyl-2,5-dimethyl-1H-pyrrole-3-carboxamide] here?
Answer: The EC50 was 453 nM.

Question: Which EC50 does the source give for Cc1nc(-c2cnccn2)sc1C(=O)NCCc1c[nH]c2ccc(Cl)cc12 [Example D73, N-(2-(5-chloro-1H-indol-3-yl)ethyl)-4-methyl-2-(pyrazin-2-yl)thiazole-5-carboxamide] here?
Answer: The EC50 was 515 nM.

Question: For COc1ccc2c(CCNC(=O)c3cc(Cc4cccc(F)c4)on3)c[nH]c2c1 [Example D74, 5-(3-fluorobenzyl)-N-(2-(6-methoxy-1H-indol-3-yl)ethyl)isoxazole-3-carboxamide], which EC50 is on record?
Answer: Its EC50 is 534 nM.
